Patent US20210045385A1, “PYRIDAZINONE-SUBSTITUTED KETOXIMES AS HERBICIDES” (FMC Corporation, priority 2018, published 2021)

Experiments:
Format in all cases: in vivo
[1] = tested on: ragweed (common ragweed, Ambrosia artemisiifolia); assay: Test C postemergence, visual plant response rating
In short: (§1)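 Compounds in a non-phytotoxic solvent with surfactant were applied as a directed soil spray preemergence or to 2–10 cm, one- to two-leaf plants postemergence, in loam–sand soil. After about 10 d in a greenhouse, injury was visually rated against untreated controls on a 0–100 scale (100 = complete control).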

[2] = tested on: wheat (Triticum aestivum); assay: Test C postemergence, visual plant response rating
In short: as §1

[3] = tested on: barnyardgrass (Echinochloa crus-galli); assay: Test C postemergence, visual plant response rating; settings: Test C, postemergence
In short: as §1

kochia (Bassia scoparia) [4] = assay: Test C postemergence, visual plant response rating; settings: Test C, postemergence
In short: as §1

corn (Zea mays) = assay: Test C postemergence, visual plant response rating; settings: Test C, postemergence
In short: as §1

[5] = tested on: galium (catchweed bedstraw, Galium aparine); assay: Test C postemergence, visual plant response rating; settings: Test C, postemergence
In short: as §1

[6] = tested on: pigweed (Amaranthus retroflexus); assay: Test C postemergence, visual plant response rating
In short: as §1

[7] = tested on: blackgrass (Alopecurus myosuroides); assay: Test C postemergence, visual plant response rating; settings: Test C, postemergence
In short: as §1

[8] = tested on: Italian ryegrass (Lolium mutiflorum); assay: Test C postemergence, visual plant response rating
In short: as §1

[9] = tested on: foxtail, giant (giant foxtail, Setaria faberi); assay: Test C postemergence, visual plant response rating; settings: Test C, postemergence
In short: as §1

[10] = tested on: ragweed (common ragweed, Ambrosia artemisiifolia); assay: Test C preemergence, visual plant response rating
In short: as §1

[11] = tested on: barnyardgrass (Echinochloa crus-galli); assay: Test C preemergence, visual plant response rating
In short: as §1

kochia (Bassia scoparia) [12] = assay: Test C preemergence, visual plant response rating
In short: as §1

[13] = tested on: pigweed (Amaranthus retroflexus); assay: Test C preemergence, visual plant response rating
In short: as §1

[14] = tested on: Italian ryegrass (Lolium mutiflorum); assay: Test C preemergence, visual plant response rating
In short: as §1

[15] = tested on: foxtail, giant (giant foxtail, Setaria faberi); assay: Test C preemergence, visual plant response rating
In short: as §1

[16] = tested on: duck salad (Heteranthera limosa); assay: Test D flooded paddy test, visual plant response rating; settings: 250 g ai/ha, scale 0 to 100 (0 no effect, 100 complete control), 13 to 15 d
In short: (§2)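 Plants were grown to the 2-leaf stage, pots flooded to 3 cm above soil, and compound applied directly into the paddy water, with the depth held throughout. After 13 to 15 d in a greenhouse, response was rated visually against untreated controls on a 0–100 scale (0 no effect, 100 complete control).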

[17] = tested on: sedge umbrella (small-flower umbrella sedge, Cyperus difformis); assay: as above; settings: 250 g ai/ha, scale 0 to 100 (0 no effect, 100 complete control), 13 to 15 d
In short: as §2

[18] = tested on: barnyardgrass (Echinochloa crus-galli); assay: as above; settings: 250 g ai/ha, scale 0 to 100 (0 no effect, 100 complete control), 13 to 15 d
In short: as §2

rice (Oryza sativa) = assay: as above; settings: 250 g ai/ha, scale 0 to 100 (0 no effect, 100 complete control), 13 to 15 d
In short: as §2

[19] = Test C, postemergence, 125 g ai/ha
[20] = Test C, postemergence, 500 g ai/ha
[21] = Test C, 31 g ai/ha, 0 is no effect, 100 is complete control

CON=C(c1csc(C)c1)c1c(O)c(C)nn(C)c1=O [Compound 151]
30: Ragweed plant response rating (0 to 100 scale) [1, 20] | Blackgrass plant response rating (0 to 100 scale) ([7]; 500 g ai/ha) | Ryegrass, Italian plant response rating (0 to 100 scale) [8, 20] | Ryegrass, Italian plant response rating (0 to 100 scale) ([14]; 500 g ai/ha)
0: Ragweed plant response rating (0 to 100 scale) [1, 19] | Wheat plant response rating (0 to 100 scale) [2, 19] | Wheat plant response rating (0 to 100 scale) [2, 20] | Barnyardgrass plant response rating (0 to 100 scale) ([3]; 125 g ai/ha) | Kochia plant response rating (0 to 100 scale) (kochia (Bassia scoparia) [4]; 125 g ai/ha) | Corn plant response rating (0 to 100 scale) (corn (Zea mays); 125 g ai/ha) | Corn plant response rating (0 to 100 scale) (corn (Zea mays); 500 g ai/ha) | Blackgrass plant response rating (0 to 100 scale) ([7]; 125 g ai/ha) | Foxtail, Giant plant response rating (0 to 100 scale) ([9]; 125 g ai/ha) | Ragweed plant response rating (0 to 100 scale) ([10]; 125 g ai/ha) | Ragweed plant response rating (0 to 100 scale) ([10]; 500 g ai/ha) | Barnyardgrass plant response rating (0 to 100 scale) ([11]; 125 g ai/ha) | Barnyardgrass plant response rating (0 to 100 scale) ([11]; 500 g ai/ha) | Kochia plant response rating (0 to 100 scale) (kochia (Bassia scoparia) [12]; 125 g ai/ha) | Kochia plant response rating (0 to 100 scale) (kochia (Bassia scoparia) [12]; 500 g ai/ha) | Pigweed plant response rating (0 to 100 scale) ([13]; 125 g ai/ha) | Pigweed plant response rating (0 to 100 scale) ([13]; 500 g ai/ha) | Ryegrass, Italian plant response rating (0 to 100 scale) ([14]; 125 g ai/ha) | Foxtail, Giant plant response rating (0 to 100 scale) ([15]; 125 g ai/ha) | Foxtail, Giant plant response rating (0 to 100 scale) ([15]; 500 g ai/ha) | Plant response rating, Ducksalad (Flood) [16] | Plant response rating, Sedge, Umbrella (Flood) [17] | Plant response rating, Barnyardgrass (Flood) [18] | Plant response rating, Rice (Flood) (rice (Oryza sativa))
20: Kochia plant response rating (0 to 100 scale) (kochia (Bassia scoparia) [4]; 500 g ai/ha) | Ryegrass, Italian plant response rating (0 to 100 scale) [8, 19]
40: Galium plant response rating (0 to 100 scale) ([5]; 125 g ai/ha)
10: Barnyardgrass plant response rating (0 to 100 scale) ([3]; 500 g ai/ha) | Pigweed plant response rating (0 to 100 scale) [6, 19] | Pigweed plant response rating (0 to 100 scale) [6, 20] | Foxtail, Giant plant response rating (0 to 100 scale) ([9]; 500 g ai/ha)
50: Galium plant response rating (0 to 100 scale) ([5]; 500 g ai/ha)

CO/N=C(\c1cc(F)cc(F)c1C)c1c(O)c(C)nn(C)c1=O [Compound 152]
50: Kochia plant response rating (0 to 100 scale) (kochia (Bassia scoparia) [4]; 31 g ai/ha) | Foxtail, Giant plant response rating (0 to 100 scale) ([9]; 125 g ai/ha)
10: Blackgrass plant response rating (0 to 100 scale) ([7]; 125 g ai/ha) | Foxtail, Giant plant response rating (0 to 100 scale) ([9]; 31 g ai/ha) | Barnyardgrass plant response rating (0 to 100 scale) ([11]; 125 g ai/ha) | Kochia plant response rating (0 to 100 scale) (kochia (Bassia scoparia) [12]; 125 g ai/ha)
80: Kochia plant response rating (0 to 100 scale) (kochia (Bassia scoparia) [4]; 125 g ai/ha) | Galium plant response rating (0 to 100 scale) ([5]; 31 g ai/ha) | Galium plant response rating (0 to 100 scale) ([5]; 125 g ai/ha) | Ryegrass, Italian plant response rating (0 to 100 scale) [8, 19] | Ryegrass, Italian plant response rating (0 to 100 scale) ([14]; 125 g ai/ha)
0: Wheat plant response rating (0 to 100 scale) ([2]; Postemergence, 31 g ai/ha) | Wheat plant response rating (0 to 100 scale) [2, 19] | Barnyardgrass plant response rating (0 to 100 scale) ([3]; 31 g ai/ha) | Corn plant response rating (0 to 100 scale) (corn (Zea mays); 31 g ai/ha) | Corn plant response rating (0 to 100 scale) (corn (Zea mays); 125 g ai/ha) | Blackgrass plant response rating (0 to 100 scale) ([7]; 31 g ai/ha) | Barnyardgrass plant response rating (0 to 100 scale) [11, 21] | Kochia plant response rating (0 to 100 scale) (kochia (Bassia scoparia) [12]; [21]) | Pigweed plant response rating (0 to 100 scale) [13, 21] | Foxtail, Giant plant response rating (0 to 100 scale) [15, 21] | Plant response rating, Ducksalad (Flood) [16] | Plant response rating, Sedge, Umbrella (Flood) [17] | Plant response rating, Barnyardgrass (Flood) [18] | Plant response rating, Rice (Flood) (rice (Oryza sativa))
70: Pigweed plant response rating (0 to 100 scale) [6, 19]
20: Barnyardgrass plant response rating (0 to 100 scale) ([3]; 125 g ai/ha) | Ryegrass, Italian plant response rating (0 to 100 scale) ([8]; Postemergence, 31 g ai/ha) | Ragweed plant response rating (0 to 100 scale) [10, 21] | Ryegrass, Italian plant response rating (0 to 100 scale) [14, 21] | Foxtail, Giant plant response rating (0 to 100 scale) ([15]; 125 g ai/ha)
60: Pigweed plant response rating (0 to 100 scale) ([6]; Postemergence, 31 g ai/ha)
30: Pigweed plant response rating (0 to 100 scale) ([13]; 125 g ai/ha)
40: Ragweed plant response rating (0 to 100 scale) ([1]; Postemergence, 31 g ai/ha) | Ragweed plant response rating (0 to 100 scale) ([10]; 125 g ai/ha)
90: Ragweed plant response rating (0 to 100 scale) [1, 19]
